Experimental findings from patent publication EP4813980A1, “EP300/CBP REGULATOR, AND PREPARATION METHOD THEREFOR AND USE THEREOF” (Miracure Biotechnology Limited, priority 2023, dated 2025) are described below.

Broadly, the IC50 is the concentration that gives 50% inhibition. Low values mean higher potency, high ones lower potency.

One experiment has as its target BRD4 (Homo sapiens, UniProt O60885). Put plainly: BRD4 counter-assay, tabulated with the CBP AlphaLISA test. In kind it is binding. As to conditions: unit inferred. In general terms: Bead proximity is the source of the signal in Alpha formats.
The test system of another experiment is MM1S cells. As to the kind of experiment: Cell growth inhibition, CellTiter-Glo, 72 h. In kind it is cell-based. As to conditions: 72 h culture, mean of N=2. Summed up: (§1)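 Cells seeded at 5×10^3/well in RPMI-1640 with 10% FBS, compound added next day at 0.5% DMSO final, 72 h at 37°C. CellTiter-Glo luminescence read; % inhibition normalised to 0.5% DMSO (0%) and 1% Tween 20 (100%), plotted against concentration in nM; mean ± SEM, N=2.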

In the next experiment the test system is vCap cells. Put plainly: Cell growth inhibition, CellTiter-Glo, 72 h. As to conditions: Homo sapiens, 72 h culture, mean of N=2. Format: cell-based. Summed up:
as §1
A general note: ATP-based viability assays read luminescence as a measure of living cells.

The test system of another experiment is OPM-2 cells. Put plainly: Cell growth inhibition, CellTiter-Glo, 72 h. Format: cell-based. To be noted: Homo sapiens, 72 h culture, mean of N=2. Summed up: as §1
In the next experiment the test system is 22RV1 cells. Put plainly: Cell growth inhibition, CellTiter-Glo, 72 h. Format: cell-based. To be noted: Homo sapiens, 72 h culture, mean of N=2. Summed up: as §1
The target in a further experiment is T1, CBP bromodomain (Homo sapiens, UniProt Q92793).
T1 construct: purchased
As to the kind of experiment: CBP AlphaLISA Assay Kit: binding of CBP bromodomain to acetylated histone substrate. As to conditions: 30 min incubation with CBP and biotinylated substrate, N=2, unit inferred. The method, then: The biochemical activity test of CBP preparations was detected using CBP AlphaLISA® Assay Kit. The detection principle is based on the binding of CBP bromodomain to acetylated histone substrate. The compounds were incubated with CBP and biotinylated substrate for 30 min, followed by the addition of acceptor beads for 15 min and donor beads for 15 min. Alpha counts were read, data were analyzed using Prism 7.0 and IC50 values were calculated.

T1 sequence (Q92793 1085-1192 limits assumed): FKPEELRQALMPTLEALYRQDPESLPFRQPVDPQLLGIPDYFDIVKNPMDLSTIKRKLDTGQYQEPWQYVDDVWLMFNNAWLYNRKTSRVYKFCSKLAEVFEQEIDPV

In the case of `CO[C@H]1CC[C@H](n2c([C@@H]3CCCC(=O)N3c3ccc(F)c(F)c3)nc3cc(-c4c(C)noc4C)ccc32)CC1` [CCS1477], the IC50 against BRD4 came out at 7250 nM; in the experiment with MM1S cells, 220 nM; in the experiment with vCap cells, 140 nM; with OPM-2 cells it was 37 nM; with 22RV1 cells, 2520 nM.
Take `CNC(=O)N1CCc2c(c(N3CCCc4cc(-c5cnn(C)c5)c(C(F)F)cc43)nn2[C@H]2CC[C@H](N3C(=O)C=CC3=O)CC2)C1` [Compound 1383, 3-(7-(difluoromethyl)-6-(1-methyl-1H-pyrazol-4-yl)-3,4-dihydroquinolin-1(2H)-yl)-1-((1r,4r)-4-(2,5-dioxo-2,5-dihydro-1H-pyrrol-1-yl)cyclohexyl)-N-methyl-1,4,6,7-tetrahydro-5H-pyrazolo[4,3-c]pyridine-5-carboxamide]: the IC50 with MM1S cells (Homo sapiens, MM1.S) is 122 nM; in the experiment on vCap cells it was 108 nM; in the experiment with OPM-2 cells, 63 nM; with 22RV1 cells, 496 nM.
The corresponding values for `C=CS(=O)(=O)N[C@H]1CC[C@@H](n2nc(N3CCCc4cc(-c5cnn(C)c5)c(C(F)F)cc43)c3c2CCN(C(=O)NC)C3)CC1` [Compound 1375, 3-(7-(difluoromethyl)-6-(1-methyl-1H-pyrazol-4-yl)-3,4-dihydroquinolin-1(2H)-yl)-N-methyl-1-((1s,4s)-4-(vinylsulfonamido)cyclohexyl)-1,4,6,7-tetrahydro-5H-pyrazolo[4,3-c]pyridine-5-carboxamide] are 2 nM, 2 nM, 1 nM and 16 nM.
Taken in the same sequence, the figures for `CNC(=O)N1CCc2c(c(N3CCCc4cc(-c5cnn(C)c5)c(C(F)F)cc43)nn2C2CCN(C(=O)CCl)CC2)C1` [Compound 1377, 1-(1-(2-chloroacetyl)piperidin-4-yl)-3-(7-(difluoromethyl)-6-(1-methyl-1H-pyrazol-4-yl)-3,4-dihydroquinolin-1(2H)-yl)-N-methyl-1,4,6,7-tetrahydro-5H-pyrazolo[4,3-c]pyridine-5-carboxamide] were 0.3 nM, 0.5 nM, 0.2 nM and 4 nM.
Taken in the same sequence, the figures for `C=CS(=O)(=O)N[C@H]1CC[C@@H](c2cc3c(c(N4CCCc5cc(-c6cnn(C)c6)c(C(F)F)cc54)c2)CN(C(=O)NC)CC3)CC1` [Compound 1366, 8-(7-(difluoromethyl)-6-(1-methyl-1H-pyrazol-4-yl)-3,4-dihydroquinolin-1(2H)-yl)-N-methyl-6-((1s,4s)-4-(vinylsulfonamido)cyclohexyl)-3,4-dihydroisoquinoline-2(1H)-carboxamide] were 24 nM, 28 nM, 5 nM and 131 nM.
Consider `C=CS(=O)(=O)N[C@H]1CC[C@H](c2cc3c(c(N4CCCc5cc(-c6cnn(C)c6)c(C(F)F)cc54)c2)CN(C(=O)NC)CC3)CC1` [Compound 1367, 8-(7-(difluoromethyl)-6-(1-methyl-1H-pyrazol-4-yl)-3,4-dihydroquinolin-1(2H)-yl)-N-methyl-6-((1r,4r)-4-(vinylsulfonamido)cyclohexyl)-3,4-dihydroisoquinoline-2(1H)-carboxamide], for which the IC50 came to 33 nM with MM1S cells (Homo sapiens, MM1.S); 46 nM with vCap cells; 4 nM with OPM-2 cells; 135 nM in the experiment with 22RV1 cells.
As to `CNC(=O)N1CCc2c(c(N3CCCc4cc(-c5cnn(C)c5)c(C(F)F)cc43)nn2C2CCOCC2)C1` [GNE-781], the IC50 in the experiment with MM1S cells (Homo sapiens, MM1.S) was 104 nM; with vCap cells, 2150 nM; in the experiment on OPM-2 cells it was 8 nM; with 22RV1 cells, 4240 nM.
As to `CC(=O)N1Cc2cc(C3CCN(C(=O)/C=C/CN(C)C)CC3)cc(N3CCCc4cc(-c5cnn(C)c5)c(C(F)F)cc43)c2C1` [Compound 1357], the concentration for half-maximal inhibition (IC50) on BRD4 stood at 5710 nM; on CBP bromodomain it was 0.96 nM; with MM1S cells (Homo sapiens, MM1.S) it was 58 nM; in the experiment on 22RV1 cells, 5420 nM.
Take `CC(=O)N1Cc2cc([C@H]3CC[C@H](CN4Cc5cc6c(cc5C4)C(=O)N(C4CCC(=O)NC4=O)C6=O)CC3)cc(N3CCCc4cc(-c5cnn(C)c5)c(C(F)F)cc43)c2C1` (relative stereo) [Compound 2083, 6-(((1r,4r)-4-(2-acetyl-7-(7-(difluoromethyl)-6-(1-methyl-1H-pyrazol-4-yl)-3,4-dihydroquinolin-1(2H)-yl)isoindolin-5-yl)cyclohexyl)methyl)-2-(2,6-dioxopiperidin-3-yl)-6,7-dihydropyrrolo[3,4-f]isoindole-1,3(2H,5H)-dione]: the IC50 was 35 nM with MM1S cells (Homo sapiens, MM1.S); 58 nM with vCap cells; 13 nM in the experiment on OPM-2 cells; greater than 10000 nM in the experiment with 22RV1 cells.
Taken in the same sequence, the figures for `CC(=O)N1Cc2cc(C3CCN(CC4CCN(c5ccc6c(c5)n(C)c(=O)n6C5CCC(=O)NC5=O)CC4)CC3)cc(N3CCCc4cc(-c5cnn(C)c5)c(C(F)F)cc43)c2C1` (centres unmarked) [Compound 2068] were 0.07 nM, 0.07 nM, 0.04 nM and 0.06 nM.
For `C=CS(=O)(=O)N1CCC(c2cc3c(c(N4CCCc5cc(-c6cnn(C)c6)c(C(F)F)cc54)c2)CN(C(=O)NC)C3)CC1` [Compound 1391, 4-(7-(difluoromethyl)-6-(1-methyl-1H-pyrazol-4-yl)-3,4-dihydroquinolin-1(2H)-yl)-N-methyl-6-(1-(vinylsulfonyl)piperidin-4-yl)isoindoline-2-carboxamide], the IC50 is 117 nM in the experiment with MM1S cells (Homo sapiens, MM1.S); 191 nM with vCap cells; 33 nM in the experiment with OPM-2 cells; 438 nM in the experiment with 22RV1 cells.
In the case of `C=CS(=O)(=O)N[C@H]1CC[C@H](n2nc(N3CCCc4cc(-c5cnn(C)c5)c(C(F)F)cc43)c3c2CCN(C(C)=O)C3)CC1` [Compound 1387, N-((1r,4r)-4-(5-acetyl-3-(7-(difluoromethyl)-6-(1-methyl-1H-pyrazol-4-yl)-3,4-dihydroquinolin-1(2H)-yl)-4,5,6,7-tetrahydro-1H-pyrazolo[4,3-c]pyridin-1-yl)cyclohexyl)ethenesulfonamide], the IC50 in the experiment on MM1S cells (Homo sapiens, MM1.S) amounted to 3 nM; in the experiment with vCap cells it was 3 nM; with OPM-2 cells, 1 nM; in the experiment with 22RV1 cells, 18 nM.
Consider `CC(=O)N1Cc2cc(C3CCN(CC4CCN(c5ccc6c(c5)CN(C5CCC(=O)NC5=O)C6=O)CC4)CC3)cc(N3CCCc4cc(-c5cnn(C)c5)c(C(F)F)cc43)c2C1` (centres unmarked) [Compound 2058], for which the IC50 in the experiment with MM1S cells (Homo sapiens, MM1.S) was 0.3 nM; with vCap cells, 0.29 nM; with OPM-2 cells it was 0.23 nM; in the experiment with 22RV1 cells, 0.31 nM.
As for `CC(=O)N1Cc2cc(C3CCN(CC4CCN(c5ccc6c(c5)C(=O)N(C5CCC(=O)NC5=O)C6=O)CC4)CC3)cc(N3CCCc4cc(-c5cnn(C)c5)c(C(F)F)cc43)c2C1` (centres unmarked) [Compound 2085], the IC50 was 2 nM in the experiment on MM1S cells (Homo sapiens, MM1.S); 2 nM with vCap cells; 2 nM in the experiment with OPM-2 cells; 4 nM with 22RV1 cells.
For the molecule `CC(=O)N1Cc2cc([C@H]3CC[C@H](NC(=O)CCl)CC3)cc(N3CCCc4cc(-c5cnn(C)c5)c(C(F)F)cc43)c2C1` [Compound 1362], the IC50 in the experiment with MM1S cells (Homo sapiens, MM1.S) was determined as 3 nM; with vCap cells, 6 nM; in the experiment on OPM-2 cells it was 2 nM; in the experiment with 22RV1 cells it was 51 nM.
Taken in the same sequence, the figures for `C=CS(=O)(=O)N1CCC(n2nc(N3CCCc4cc(-c5cnn(C)c5)c(C(F)F)cc43)c3c2CCN(C(=O)NC)C3)CC1` [Compound 1369, 3-(7-(difluoromethyl)-6-(1-methyl-1H-pyrazol-4-yl)-3,4-dihydroquinolin-1(2H)-yl)-N-methyl-1-(1-(vinylsulfonyl)piperidin-4-yl)-1,4,6,7-tetrahydro-5H-pyrazolo[4,3-c]pyridine-5-carboxamide] were 1 nM, 1 nM, 0.4 nM and 4 nM.
`CNC(=O)N1CCc2cc(C3CCN(C(=O)CCCCCCCCNc4ccc5c(c4)n(C)c(=O)n5C4CCC(=O)NC4=O)CC3)cc(N3CCCc4cc(-c5cnn(C)c5)c(C(F)F)cc43)c2C1` (centres unmarked) [Compound 2018]: the IC50 is 0.1 nM in the experiment on MM1S cells (Homo sapiens, MM1.S); less than 0.005 nM in the experiment on vCap cells; 0.05 nM in the experiment with OPM-2 cells; 0.01 nM with 22RV1 cells.
Taken in the same sequence, the figures for `C=CS(=O)(=O)N1CCC(n2nc(N3CCCc4cc(-c5cnn(C)c5)c(C5CC5)cc43)c3c2CCN(C(=O)NC)C3)CC1` [Compound 1378, 3-[7-cyclopropyl-6-(1-methylpyrazol-4-yl)-3,4-dihydro-2H-quinolin-1-yl]-1-(1-(vinylsulfonyl)piperidin-4-yl)-N-methyl-4H,6H,7H-pyrazolo[4,3-c]pyridine-5-carboxamide] were 3 nM, 3 nM, 2 nM and 10 nM.
The corresponding values for `CC(=O)N1Cc2cc([C@H]3CC[C@@H](CN4Cc5cc6c(cc5C4)C(=O)N(C4CCC(=O)NC4=O)C6=O)CC3)cc(N3CCCc4cc(-c5cnn(C)c5)c(C(F)F)cc43)c2C1` (relative stereo) [Compound 2082, 6-(((1s,4s)-4-(2-acetyl-7-(7-(difluoromethyl)-6-(1-methyl-1H-pyrazol-4-yl)-3,4-dihydroquinolin-1(2H)-yl)isoindolin-5-yl)cyclohexyl)methyl)-2-(2,6-dioxopiperidin-3-yl)-6,7-dihydropyrrolo[3,4-f]isoindole-1,3(2H,5H)-dione] are 25 nM, 13 nM, 4 nM and 47 nM.
